Where a SMILES comes first, the peptide text is derived from it. [ ]: non-standard residue; d: D form. ξ: configuration not given here. ξBip(2'-Et-4'-OMe) = CCc1cc(OC)ccc1-c1ccc(CC(N)C(=O)O)cc1; Arg(NO2) = N=C(NCCC[C@H](N)C(=O)O)N[N+](=O)[O-]; ξαMePhe(2,6-F2) = CC(N)(Cc1c(F)cccc1F)C(=O)O; ξαMePhe(2-F) = CC(N)(Cc1ccccc1F)C(=O)O; hArg = N=C(N)NCCCC[C@H](N)C(=O)O; hCit = NC(=O)NCCCC[C@H](N)C(=O)O; Cit = NC(=O)NCCC[C@H](N)C(=O)O; ξhhPhe = NC(CCCc1ccccc1)C(=O)O; Nle = CCCC[C@H](N)C(=O)O; Orn = NCCC[C@H](N)C(=O)O; Ac5c = NC1(C(=O)O)CCCC1; Ac3c = NC1(C(=O)O)CC1; Aib = CC(C)(N)C(=O)O
Test system: ovariectomised (OVX) rats
Test: In vivo anti-osteoporosis activity testing in OVX rat model (serum calcium, phosphate, bone parameters)
Design: species or system Female Wistar Rats
Details: po
Description: c) In Vivo Anti-Osteoporosis Activity Testing in OVX Rat Model: The ovariectomised (OVX) rats were used to study anti-osteoporosis activity of test compounds (short-chain peptides) in vivo. The OVX rats develop osteopenia due to ovarian hormone deficiency. Osteopenia can be detected as early as 14 days post OVX, increase for the next 100 days and then stabilised (Wronski T. J., et al., Calcif. Tissue Int., 43(3), 1988, 179-183). Detailed Study Protocol to Evaluate the Effects of Anabolic Therapy on Bone Markers and Histomorphometry in OVX Animals: 10 to 11 weeks old Female Wistar Rats (150-200 g) were used. The animals were kept in individually ventilated cages in a room with controlled temperature (23°±3° C.), lighting (12:12 h light-dark cycle) and relative humidity (55±10%). Animals had free access to standard rat chow and water. Protocol for use of animals for conducting this study has been reviewed and approved by Institutional Animal Ethics Committee (IAEC). The animals were marked with picric acid for identification and acclimatized to experimental room conditions for 2 days prior to initiation of the study. For the induction of osteoporosis, rats were bilaterally ovariectomised under anesthesia. For Ovariectomy, Incision was made on dorsa-lateral side near lumbar region of animal. After that, ovary was excised and the veins were tied with ligature before removing ovary to prevent blood loss. Then incision was sutured back with ligature. After Bilateral ovariectomy, animals were allowed to rest for 4 weeks. They were then divided into different groups (n=9) based on their body weight. The groups consisted of a no treatment control, PTH as standard and one or two groups of test compounds (short-chain peptides). The treatment was given for the duration of 6 weeks. At the last day of treatment animals were kept overnight in metabolic cages under fasting for the collection of Urine. Next day, blood was collected after 24 hours of last dosing and animals were sacrificed. Changes in biochemical parameters and bone turnover parameters (Increase in serum Calcium and decrease in Phosphate levels, Acid Phosphatase and TRAP) were evaluated in the urine and serum. After sacrificing, intact femur and tibial bones are removed and cleaned from adherent tissues, muscles and tendons; weighed and collected in formal saline (10% formaldehyde solution). Lumbar vertebra (L5) was excised, carefully cleaned and collected in formal saline. Femur, tibia and Lumbar vertebra-5 (L5) were later processed for histomorphometric evaluation (Zhang L., et al., Tohoku J Exp Med., 1998, 186(2), 131-41; Tanizawa T., et al., Toxicol Lett., 1998, 102, 399-403).

SMILES: CCCC[C@H](NC(=O)C(C)(Cc1c(F)cccc1F)NC(=O)[C@H](CCC(N)=O)NC(=O)[C@@H](NC(=O)[C@H](CCC(=O)O)NC(=O)C1(NC(=O)[C@@H](NC(=O)C2(N)CCCC2)C(C)C)CCCC1)[C@@H](C)CC)C(=O)N[C@@H](Cc1c[nH]cn1)C(=O)N[C@@H](CCC(N)=O)C(=O)N[C@@H](CCCCNC(=N)N)C(=O)NC(C)(C)C(=O)N[C@@H](CCCCN)C(=O)NC(C)(Cc1c(F)cccc1F)C(N)=O (stereo partly drawn) [Seq. ID. 117] (H-[Ac5c]V[Ac5c]EIQ[ξαMePhe(2,6-F2)][Nle]HQ[hArg][Aib]K[ξαMePhe(2,6-F2)]-NH2)
- % decrease in serum PO4 Levels (mg/dl) vs control (3 mg/kg): 99%
- % increase in serum Ca^2+ Levels (mg/dl) vs control (3 mg/kg): 110%

SMILES: CCCC[C@H](NC(=O)C(C)(Cc1c(F)cccc1F)NC(=O)[C@H](CCC(N)=O)NC(=O)[C@@H](NC(=O)[C@H](CCC(=O)O)NC(=O)C1(NC(=O)[C@@H](NC(=O)C2(N)CCCC2)C(C)C)CCCC1)[C@@H](C)CC)C(=O)N[C@@H](Cc1c[nH]cn1)C(=O)N[C@@H](CCC(N)=O)C(=O)N[C@@H](CCCCNC(=N)N)C(=O)NC(C)(C)C(=O)N[C@@H](CCCNC(N)=O)C(=O)NC(C)(Cc1c(F)cccc1F)C(N)=O (stereo partly drawn) [Seq. ID. 158] (H-[Ac5c]V[Ac5c]EIQ[ξαMePhe(2,6-F2)][Nle]HQ[hArg][Aib][Cit][ξαMePhe(2,6-F2)]-NH2)
- % decrease in serum PO4 Levels (mg/dl) vs control (0.1 mg/kg): 82%
- % increase in serum Ca^2+ Levels (mg/dl) vs control (0.1 mg/kg): 100%

SMILES: CCCC[C@H](NC(=O)C(C)(Cc1ccccc1F)NC(=O)[C@H](CCC(N)=O)NC(=O)[C@@H](NC(=O)[C@H](CCC(=O)O)NC(=O)C(C)(C)NC(=O)[C@@H](NC(=O)C1(N)CCCC1)C(C)C)[C@@H](C)CC)C(=O)N[C@@H](Cc1c[nH]cn1)C(=O)N[C@@H](CCC(N)=O)C(=O)N[C@@H](CCCCNC(=N)N)C(=O)NC(C)(C)C(=O)NC(C)(Cc1c(F)cccc1F)C(=O)NC(C)(Cc1ccccc1F)C(N)=O (stereo partly drawn) [Seq. ID. 210] (H-[Ac5c]V[Aib]EIQ[ξαMePhe(2-F)][Nle]HQ[hArg][Aib][ξαMePhe(2,6-F2)][ξαMePhe(2-F)]-NH2)
- % decrease in serum PO4 Levels (mg/dl) vs control (1 mg/kg): 99%
- % increase in serum Ca^2+ Levels (mg/dl) vs control (1 mg/kg): 96%

SMILES: CCCC[C@H](NC(=O)C(C)(Cc1c(F)cccc1F)NC(=O)[C@H](CCC(N)=O)NC(=O)[C@@H](NC(=O)[C@H](CCC(=O)O)NC(=O)C(C)(C)NC(=O)[C@@H](NC(=O)C(C)(C)N)C(C)C)[C@@H](C)CC)C(=O)N[C@@H](Cc1c[nH]cn1)C(=O)N[C@@H](CCC(N)=O)C(=O)N[C@@H](CCCN)C(=O)N[C@@H](C)C(=O)N[C@@H](CCCNC(N)=O)C(=O)NC(C)(Cc1c(F)cccc1F)C(N)=O (stereo partly drawn) [Seq. ID. 293] (H-[Aib]V[Aib]EIQ[ξαMePhe(2,6-F2)][Nle]HQ[Orn]A[Cit][ξαMePhe(2,6-F2)]-NH2)
- % decrease in serum PO4 Levels (mg/dl) vs control (5 mg/kg): 75%
- % increase in serum Ca^2+ Levels (mg/dl) vs control (5 mg/kg): 67%

SMILES: CCCC[C@H](NC(=O)C(C)(Cc1c(F)cccc1F)NC(=O)[C@H](CCC(N)=O)NC(=O)[C@@H](NC(=O)[C@H](CCC(=O)O)NC(=O)C(C)(C)NC(=O)[C@@H](NC(=O)C(C)(C)N)C(C)C)[C@@H](C)CC)C(=O)N[C@@H](Cc1c[nH]cn1)C(=O)N[C@@H](CCC(N)=O)C(=O)N[C@@H](CCCN)C(=O)N[C@@H](C)C(=O)NC(C)(Cc1c(F)cccc1F)C(=O)NC(C)(Cc1ccccc1F)C(N)=O (stereo partly drawn) [Seq. ID. 317] (H-[Aib]V[Aib]EIQ[ξαMePhe(2,6-F2)][Nle]HQ[Orn]A[ξαMePhe(2,6-F2)][ξαMePhe(2-F)]-NH2)
- % decrease in serum PO4 Levels (mg/dl) vs control (3 mg/kg): 93%
- % increase in serum Ca^2+ Levels (mg/dl) vs control (3 mg/kg): 102%

SMILES: CCCC[C@H](NC(=O)C(C)(Cc1c(F)cccc1F)NC(=O)[C@H](CCC(N)=O)NC(=O)[C@@H](NC(=O)[C@H](CCC(=O)O)NC(=O)C(C)(C)NC(=O)[C@@H](NC(=O)C1(N)CCCC1)C(C)C)[C@@H](C)CC)C(=O)N[C@@H](Cc1c[nH]cn1)C(=O)N[C@@H](CCC(N)=O)C(=O)N[C@@H](CCCNC(N)=O)C(=O)N[C@@H](C)C(=O)NC(C)(Cc1c(F)cccc1F)C(=O)NC(C)(Cc1c(F)cccc1F)C(N)=O (stereo partly drawn) [Seq. ID. 391] (H-[Ac5c]V[Aib]EIQ[ξαMePhe(2,6-F2)][Nle]HQ[Cit]A[ξαMePhe(2,6-F2)][ξαMePhe(2,6-F2)]-NH2)
- % decrease in serum PO4 Levels (mg/dl) vs control (0.1 mg/kg): 59%
- % increase in serum Ca^2+ Levels (mg/dl) vs control (0.1 mg/kg): 82%

SMILES: CCCC[C@H](NC(=O)C(C)(Cc1c(F)cccc1F)NC(=O)[C@H](CCC(N)=O)NC(=O)[C@@H](NC(=O)[C@H](CCC(=O)O)NC(=O)C(C)(C)NC(=O)[C@@H](NC(=O)C1(N)CCCC1)C(C)C)[C@@H](C)CC)C(=O)N[C@@H](Cc1c[nH]cn1)C(=O)N[C@@H](CCC(N)=O)C(=O)N[C@@H](CCCNC(N)=O)C(=O)N[C@@H](C)C(=O)N[C@@H](CCCNC(=N)N[N+](=O)[O-])C(=O)NC(C)(Cc1c(F)cccc1F)C(N)=O (stereo partly drawn) [Seq. ID. 407] (H-[Ac5c]V[Aib]EIQ[ξαMePhe(2,6-F2)][Nle]HQ[Cit]A[Arg(NO2)][ξαMePhe(2,6-F2)]-NH2)
- % decrease in serum PO4 Levels (mg/dl) vs control (0.03 mg/kg): 81%
- % increase in serum Ca^2+ Levels (mg/dl) vs control (0.03 mg/kg): 77%

SMILES: CCCC[C@H](NC(=O)C(C)(Cc1c(F)cccc1F)NC(=O)[C@H](CCC(N)=O)NC(=O)[C@@H](NC(=O)[C@H](CCC(=O)O)NC(=O)C(C)(C)NC(=O)[C@@H](NC(=O)C(C)(C)N)C(C)C)[C@@H](C)CC)C(=O)N[C@@H](Cc1c[nH]cn1)C(=O)N[C@@H](CCC(N)=O)C(=O)N[C@@H](CCCCNC(N)=O)C(=O)N[C@@H](C)C(=O)N[C@@H](CCCNC(=N)N[N+](=O)[O-])C(=O)NC(C)(Cc1c(F)cccc1F)C(N)=O (stereo partly drawn) [Seq. ID. 469] (H-[Aib]V[Aib]EIQ[ξαMePhe(2,6-F2)][Nle]HQ[hCit]A[Arg(NO2)][ξαMePhe(2,6-F2)]-NH2)
- % decrease in serum PO4 Levels (mg/dl) vs control (0.01 mg/kg): 65%
- % increase in serum Ca^2+ Levels (mg/dl) vs control (0.01 mg/kg): 43%

SMILES: CCCC[C@H](NC(=O)C(C)(Cc1c(F)cccc1F)NC(=O)[C@H](CCC(N)=O)NC(=O)[C@@H](NC(=O)[C@H](CCC(=O)O)NC(=O)C(C)(C)NC(=O)[C@@H](NC(=O)C1(N)CCCC1)C(C)C)[C@@H](C)CC)C(=O)N[C@@H](Cc1c[nH]cn1)C(=O)N[C@@H](CCC(N)=O)C(=O)NC(C)(Cc1c(F)cccc1F)C(=O)N[C@@H](C)C(=O)NC(C)(Cc1c(F)cccc1F)C(=O)NC(C)(Cc1ccccc1F)C(N)=O (stereo partly drawn) [Seq. ID. 511] (H-[Ac5c]V[Aib]EIQ[ξαMePhe(2,6-F2)][Nle]HQ[ξαMePhe(2,6-F2)]A[ξαMePhe(2,6-F2)][ξαMePhe(2-F)]-NH2)
- % decrease in serum PO4 Levels (mg/dl) vs control (1 mg/kg): 88%
- % increase in serum Ca^2+ Levels (mg/dl) vs control (1 mg/kg): 84%

SMILES: CCCC[C@H](NC(=O)C(C)(Cc1ccccc1F)NC(=O)[C@H](CCC(N)=O)NC(=O)[C@@H](NC(=O)[C@H](CCC(=O)O)NC(=O)C(C)(C)NC(=O)[C@@H](NC(=O)C1(N)CCCC1)C(C)C)[C@@H](C)CC)C(=O)N[C@@H](Cc1c[nH]cn1)C(=O)N[C@@H](CCC(N)=O)C(=O)NC(C)(C)C(=O)NC(C)(C)C(=O)NC(C)(C)C(=O)NC(C)(Cc1ccccc1F)C(N)=O (stereo partly drawn) [Seq. ID. 556] (H-[Ac5c]V[Aib]EIQ[ξαMePhe(2-F)][Nle]HQ[Aib][Aib][Aib][ξαMePhe(2-F)]-NH2)
- % decrease in serum PO4 Levels (mg/dl) vs control (5 mg/kg): 84%
- % increase in serum Ca^2+ Levels (mg/dl) vs control (5 mg/kg): 77%

SMILES: CCCC[C@H](NC(=O)C(C)(Cc1c(F)cccc1F)NC(=O)[C@H](CCC(N)=O)NC(=O)[C@@H](NC(=O)[C@H](CCC(=O)O)NC(=O)C(C)(C)NC(=O)[C@@H](NC(=O)C1(N)CCCC1)C(C)C)[C@@H](C)CC)C(=O)N[C@@H](Cc1c[nH]cn1)C(=O)N[C@@H](CCC(N)=O)C(=O)NC(C)(C)C(=O)N[C@@H](C)C(=O)N[C@@H](CCCNC(=N)N[N+](=O)[O-])C(=O)NC(C)(Cc1c(F)cccc1F)C(N)=O (stereo partly drawn) [Seq. ID. 599] (H-[Ac5c]V[Aib]EIQ[ξαMePhe(2,6-F2)][Nle]HQ[Aib]A[Arg(NO2)][ξαMePhe(2,6-F2)]-NH2)
- % decrease in serum PO4 Levels (mg/dl) vs control (0.03 mg/kg): 90%
- % increase in serum Ca^2+ Levels (mg/dl) vs control (0.03 mg/kg): 110%

SMILES: CCc1cc(OC)ccc1-c1ccc(CC(NC(=O)[C@H](CCCCN)NC(=O)[C@H](C)NC(=O)[C@H](CCCCNC(=N)N)NC(=O)[C@H](CCC(N)=O)NC(=O)[C@H](Cc2c[nH]cn2)NC(=O)[C@H](CCSC)NC(=O)[C@H](CC(C)C)NC(=O)[C@H](CCC(N)=O)NC(=O)[C@@H](NC(=O)[C@H](CCC(=O)O)NC(=O)C2(NC(=O)[C@@H](NC(=O)C(C)(C)N)C(C)C)CC2)[C@@H](C)CC)C(=O)NC(CCCc2ccccc2)C(N)=O)cc1 (stereo partly drawn) [Seq. ID. 607] (H-[Aib]V[Ac3c]EIQLMHQ[hArg]AK[ξBip(2'-Et-4'-OMe)][ξhhPhe]-NH2)
- % decrease in serum PO4 Levels (mg/dl) vs control (0.01 mg/kg): 88%
- % increase in serum Ca^2+ Levels (mg/dl) vs control (0.01 mg/kg): 78%

From patent US8383581B2, “Short-chain peptides as parathyroid hormone (PTH) receptor agonist” (Cadila Healthcare Limited, priority 2009, dated 2013)
